In PubChem BioAssay (NCI) one finds TGI data, which are given here for 8 compounds.

Some test systems named below: OVCAR-8 ovarian; SK-MEL-28 melanoma; HOP-92 NSCLC; UACC-62 melanoma; M19-MEL melanoma; SNB-75 CNS; SF-295 CNS; COLO 205 colon; SF-268 CNS; NCI-H23 lung; HL-60(TB) leukemia; DLD-1 colon; HCT-116 colon; NCI-H460 lung; OVCAR-5 ovarian; SR leukemia; SK-MEL-2 melanoma; HOP-62 NSCLC; OVCAR-3 ovarian; MALME-3M melanoma.
Holding throughout (assay): growth of human tumour cells (NCI), 48 h

Each structure is given as a SMILES string.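 Values below derive from 48-hour exposures of cells grown in 96-well plates, with endpoints linearly interpolated between the two concentrations bracketing the appropriate inhibition level. TGI is the concentration that stops growth completely.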

On to `COC(=O)C(Cc1cc(OC)c(OC)c(OC)c1)(NC(=O)c1ccccc1)P(=O)(OC)OC` (stereo not drawn), for which the TGI in the test on OVCAR-8 ovarian, with SK-MEL-28 melanoma, in the test on HOP-92 NSCLC, in the test with UACC-62 melanoma, in the test with M19-MEL melanoma and with SNB-75 CNS was greater than 100 µM in each case. Also, the TGI in the test on SF-295 CNS, with COLO 205 colon, in the test on SF-268 CNS, in the test on NCI-H23 lung, in the test with HL-60(TB) leukemia and in the test with DLD-1 colon was greater than 100 µM throughout. In addition, the TGI in the test with HCT-116 colon, with NCI-H460 lung, in the test with OVCAR-5 ovarian, in the test on SR leukemia, in the test on SK-MEL-2 melanoma and in the test with HOP-62 NSCLC was greater than 100 µM each time.
For `COc1ccc(Nc2cnc3cc(N)ccc3n2)cc1OC`, the TGI in the test on OVCAR-3 ovarian is greater than 100 µM; in the test on OVCAR-8 ovarian it was greater than 100 µM; in the test with SK-MEL-28 melanoma it was greater than 100 µM; in the test with HOP-92 NSCLC, 42.5 µM; in the test on UACC-62 melanoma it was greater than 100 µM; in the test with M19-MEL melanoma it was greater than 100 µM. Further, the TGI with SNB-75 CNS is greater than 100 µM; with SF-295 CNS, greater than 100 µM; with COLO 205 colon, greater than 100 µM; in the test on SF-268 CNS, greater than 100 µM; with NCI-H23 lung it was greater than 100 µM; with HL-60(TB) leukemia, 62.1 µM. Besides, the TGI in the test with DLD-1 colon, with HCT-116 colon, with MALME-3M melanoma, in the test on NCI-H460 lung, with OVCAR-5 ovarian and in the test with SR leukemia was greater than 100 µM throughout. The TGI in the test with SK-MEL-2 melanoma and with HOP-62 NSCLC was greater than 100 µM throughout.
`c1ccc2c(CCNC3=NCCO3)cccc2c1`: the TGI in the test on OVCAR-3 ovarian, in the test on OVCAR-8 ovarian, in the test with SK-MEL-28 melanoma, with UACC-62 melanoma, in the test on SNB-75 CNS and with SF-295 CNS was greater than 10 µM throughout. In addition, the TGI in the test on COLO 205 colon, with SF-268 CNS, in the test with NCI-H23 lung, with HL-60(TB) leukemia, with HCT-116 colon and in the test on MALME-3M melanoma was greater than 10 µM in each case. The TGI in the test with NCI-H460 lung, in the test on OVCAR-5 ovarian, in the test on SR leukemia, in the test on SK-MEL-2 melanoma and with HOP-62 NSCLC was greater than 10 µM throughout.
Regarding `Nc1[nH]nc2c1Cc1c(n(Cc3ccc(Cl)cc3)c3ccccc13)C(=O)N2`, the TGI in the test on OVCAR-3 ovarian is 30.5 µM; in the test on OVCAR-8 ovarian it was 39.2 µM; with SK-MEL-28 melanoma it was greater than 100 µM; in the test on HOP-92 NSCLC it was 31.5 µM; in the test with UACC-62 melanoma it was greater than 100 µM; in the test on SNB-75 CNS, 30.6 µM. Further, the TGI with SF-295 CNS was 35.9 µM; with COLO 205 colon, 23.7 µM; with SF-268 CNS, 47.8 µM; in the test with NCI-H23 lung it was 23.9 µM; with HL-60(TB) leukemia it was 10.2 µM; with HCT-116 colon, 21.8 µM. Further, the TGI was 52.3 µM in the test on MALME-3M melanoma; 27.3 µM with NCI-H460 lung; 27.3 µM in the test with OVCAR-5 ovarian; greater than 100 µM in the test on SR leukemia; 34.3 µM in the test with SK-MEL-2 melanoma; 31.1 µM in the test with HOP-62 NSCLC.
Take `CC(=O)Nc1ccc(C(=O)NN2C(=O)C(Cl)C2/C=C/c2ccccc2)cc1` (stereo not drawn): the TGI in the test with OVCAR-3 ovarian, in the test on OVCAR-8 ovarian, with SK-MEL-28 melanoma, with HOP-92 NSCLC, in the test with UACC-62 melanoma and in the test with M19-MEL melanoma was greater than 100 µM each time. Moreover, the TGI in the test on SNB-75 CNS, in the test with SF-295 CNS, in the test with COLO 205 colon, with SF-268 CNS, with NCI-H23 lung and in the test on HL-60(TB) leukemia was greater than 100 µM in each case. The TGI with DLD-1 colon, in the test with HCT-116 colon, in the test on MALME-3M melanoma, in the test on NCI-H460 lung, in the test on OVCAR-5 ovarian and in the test on SR leukemia was greater than 100 µM each time. Moreover, the TGI in the test on SK-MEL-2 melanoma and with HOP-62 NSCLC was greater than 100 µM in each case.
Regarding `O=[N+]([O-])c1cnccc1-n1nnc2ccccc21`, the TGI with OVCAR-3 ovarian was greater than 31.6 µM; in the test with OVCAR-8 ovarian, 50.8 µM; in the test with SK-MEL-28 melanoma it was 48.4 µM; in the test with HOP-92 NSCLC it was greater than 71.1 µM; with UACC-62 melanoma, 33.4 µM; in the test on M19-MEL melanoma it was 49.6 µM. Further, the TGI in the test with SNB-75 CNS is 54.1 µM; in the test with SF-295 CNS, greater than 74.7 µM; with COLO 205 colon it was 72.8 µM; in the test with SF-268 CNS it was greater than 62.3 µM; with NCI-H23 lung, greater than 62 µM; with HL-60(TB) leukemia, greater than 54.7 µM. For the same compound, the TGI in the test with DLD-1 colon was greater than 96.6 µM; in the test with HCT-116 colon it was greater than 100 µM; in the test with MALME-3M melanoma it was 45.5 µM; in the test on NCI-H460 lung, greater than 87 µM; in the test with OVCAR-5 ovarian, 73.4 µM; with SK-MEL-2 melanoma it was 35.8 µM. For the same compound, the TGI in the test on HOP-62 NSCLC was 59.3 µM.
For the compound `O=C(O)c1cc2sc(C(=O)O)cc2s1`, the TGI in the test on OVCAR-3 ovarian, with HOP-92 NSCLC, in the test with UACC-62 melanoma, with M19-MEL melanoma, in the test on SNB-75 CNS and in the test on SF-295 CNS was greater than 100 µM in each case. The TGI in the test with COLO 205 colon, with SF-268 CNS, in the test on NCI-H23 lung, in the test on HL-60(TB) leukemia, in the test with DLD-1 colon and with HCT-116 colon was greater than 100 µM throughout. In addition, the TGI with MALME-3M melanoma, with NCI-H460 lung, in the test on OVCAR-5 ovarian, in the test on SR leukemia and in the test on HOP-62 NSCLC was greater than 100 µM throughout.
Take `CSc1nc(NC2OC(CO)C(O)C(O)C2O)c(N)c(=O)[nH]1` (stereo not drawn): the TGI in the test on OVCAR-3 ovarian, with OVCAR-8 ovarian, in the test with SK-MEL-28 melanoma, with HOP-92 NSCLC, with UACC-62 melanoma and with M19-MEL melanoma was greater than 100 µM in each case. The TGI in the test with SNB-75 CNS, with SF-295 CNS, in the test on COLO 205 colon, in the test on SF-268 CNS, in the test on NCI-H23 lung and in the test with HL-60(TB) leukemia was greater than 100 µM each time. The TGI in the test with DLD-1 colon, in the test with HCT-116 colon, in the test on MALME-3M melanoma, in the test on NCI-H460 lung, in the test on OVCAR-5 ovarian and with SK-MEL-2 melanoma was greater than 100 µM in each case. For the same compound, the TGI with HOP-62 NSCLC was greater than 100 µM.
